From ChEMBL document CHEMBL1909046, “DrugMatrix in vitro pharmacology data”

What was measured:
[1] = biological target: 5-hydroxytryptamine receptor 6 (Homo sapiens, UniProt P50406); format: cell membranes, HeLa, Membrane; also: in other assays of this panel Not Active means under 50% inhibition at 10 µM
Substance-K receptor = biological target: T1, Substance-K receptor (Homo sapiens, UniProt P21452); format: cell membranes, CHO, Membrane; details: cho; also: in other assays of this panel Not Active means under 50% inhibition at 10 µM
T1 sequence (P21452 whole entry): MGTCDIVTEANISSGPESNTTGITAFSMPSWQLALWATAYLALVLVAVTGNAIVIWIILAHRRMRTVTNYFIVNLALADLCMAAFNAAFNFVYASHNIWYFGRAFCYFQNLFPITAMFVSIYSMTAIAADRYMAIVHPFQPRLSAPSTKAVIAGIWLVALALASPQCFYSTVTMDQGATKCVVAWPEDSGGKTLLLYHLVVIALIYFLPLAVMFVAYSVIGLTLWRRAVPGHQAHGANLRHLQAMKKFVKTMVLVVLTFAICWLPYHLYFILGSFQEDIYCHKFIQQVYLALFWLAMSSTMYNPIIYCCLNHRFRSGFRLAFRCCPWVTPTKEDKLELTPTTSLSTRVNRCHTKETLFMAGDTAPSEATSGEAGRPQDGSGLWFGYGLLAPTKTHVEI

[2] = biological target: T2, Amine oxidase [flavin-containing] A (Homo sapiens, UniProt P21397); experiment: DRUGMATRIX: Monoamine Oxidase MAO-A enzyme inhibition (substrate: Kynuramine); parameters: species or system BTI-TN-5B1-4; details: bti-tn-5b1-4; Not Active = under 50% inhibition at 10 µM
T2 sequence (P21397 whole entry): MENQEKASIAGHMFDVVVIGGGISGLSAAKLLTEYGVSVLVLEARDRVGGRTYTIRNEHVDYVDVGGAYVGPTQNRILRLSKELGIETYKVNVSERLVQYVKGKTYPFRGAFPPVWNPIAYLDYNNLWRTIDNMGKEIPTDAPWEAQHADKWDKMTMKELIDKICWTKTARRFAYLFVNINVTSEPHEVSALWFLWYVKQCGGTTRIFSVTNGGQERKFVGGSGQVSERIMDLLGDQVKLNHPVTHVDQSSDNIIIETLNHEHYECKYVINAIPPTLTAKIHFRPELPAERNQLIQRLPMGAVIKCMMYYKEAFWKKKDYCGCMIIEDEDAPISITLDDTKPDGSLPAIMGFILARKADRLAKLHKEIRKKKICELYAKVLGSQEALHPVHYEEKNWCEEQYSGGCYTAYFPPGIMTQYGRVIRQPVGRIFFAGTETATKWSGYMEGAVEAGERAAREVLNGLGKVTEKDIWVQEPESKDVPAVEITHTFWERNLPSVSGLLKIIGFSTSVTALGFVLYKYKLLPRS

[3] = DRUGMATRIX: Phosphodiesterase PDE4 enzyme inhibition (substrate: [3H]cAMP + cAMP); details: u-937; Not Active = under 50% inhibition at 10 µM
[4] = biological target: Protein kinase C alpha type (Homo sapiens, UniProt P17252); format: cell-based; details: sf9;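 also: inhibition of PKCalpha kinase activity measured in an enzyme assay with histone as the phosphorylation substrate; in other assays of this panel Not Active means under 50% inhibition at 10 µM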
[5] = biological target: Epidermal growth factor receptor (Homo sapiens, UniProt P00533); experiment: DRUGMATRIX: Protein Tyrosine Kinase, EGF Receptor enzyme inhibition (substrate: Poly(Glu:Tyr)); format: cell-based, Insect cells; details: Not Active = under 50% inhibition at 10 µM
Epidermal growth factor receptor, sequence (P00533 whole entry): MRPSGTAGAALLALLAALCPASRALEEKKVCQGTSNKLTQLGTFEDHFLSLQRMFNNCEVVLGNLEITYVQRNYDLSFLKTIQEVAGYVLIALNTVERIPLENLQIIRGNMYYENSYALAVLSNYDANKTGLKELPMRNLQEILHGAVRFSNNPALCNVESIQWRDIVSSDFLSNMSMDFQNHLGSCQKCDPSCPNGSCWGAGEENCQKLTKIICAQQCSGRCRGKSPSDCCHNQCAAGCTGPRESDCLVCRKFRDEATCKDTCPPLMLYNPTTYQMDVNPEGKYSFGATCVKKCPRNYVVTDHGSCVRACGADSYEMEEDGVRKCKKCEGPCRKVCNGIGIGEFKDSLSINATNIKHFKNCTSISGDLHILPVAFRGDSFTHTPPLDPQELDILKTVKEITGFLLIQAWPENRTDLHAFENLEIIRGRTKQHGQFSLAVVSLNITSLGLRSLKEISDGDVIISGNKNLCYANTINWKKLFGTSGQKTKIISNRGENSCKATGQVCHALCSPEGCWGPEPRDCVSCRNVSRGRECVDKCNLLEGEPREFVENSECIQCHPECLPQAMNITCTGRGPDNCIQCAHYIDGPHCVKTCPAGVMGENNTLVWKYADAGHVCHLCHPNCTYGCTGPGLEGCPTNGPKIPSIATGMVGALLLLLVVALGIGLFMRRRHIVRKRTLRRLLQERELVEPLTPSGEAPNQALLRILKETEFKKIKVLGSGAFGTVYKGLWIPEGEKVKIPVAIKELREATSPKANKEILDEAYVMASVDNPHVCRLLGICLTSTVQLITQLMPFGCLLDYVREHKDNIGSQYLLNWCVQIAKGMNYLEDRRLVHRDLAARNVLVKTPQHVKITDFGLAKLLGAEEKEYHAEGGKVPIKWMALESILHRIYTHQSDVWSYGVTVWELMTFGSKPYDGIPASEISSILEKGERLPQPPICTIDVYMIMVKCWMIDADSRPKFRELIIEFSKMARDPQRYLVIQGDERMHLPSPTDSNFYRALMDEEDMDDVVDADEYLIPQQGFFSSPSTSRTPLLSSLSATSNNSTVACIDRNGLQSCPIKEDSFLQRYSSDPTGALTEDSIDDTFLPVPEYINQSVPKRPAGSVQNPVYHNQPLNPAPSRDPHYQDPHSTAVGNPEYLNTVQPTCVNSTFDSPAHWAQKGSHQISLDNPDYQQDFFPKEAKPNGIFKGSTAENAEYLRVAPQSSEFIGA

5-hydroxytryptamine receptor 6, sequence (P50406 whole entry): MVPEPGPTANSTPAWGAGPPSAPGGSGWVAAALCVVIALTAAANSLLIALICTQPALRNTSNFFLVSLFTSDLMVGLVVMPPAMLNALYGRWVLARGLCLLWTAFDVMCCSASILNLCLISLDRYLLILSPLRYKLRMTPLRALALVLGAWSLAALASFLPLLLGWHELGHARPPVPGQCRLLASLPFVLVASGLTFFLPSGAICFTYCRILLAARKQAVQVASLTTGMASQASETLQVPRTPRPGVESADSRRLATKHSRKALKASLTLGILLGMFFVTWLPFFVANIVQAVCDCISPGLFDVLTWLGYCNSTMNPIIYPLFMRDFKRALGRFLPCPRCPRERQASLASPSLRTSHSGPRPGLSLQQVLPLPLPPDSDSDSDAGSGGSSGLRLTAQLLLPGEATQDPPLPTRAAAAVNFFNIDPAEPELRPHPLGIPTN

Compound: O=P(O)(O)C(O)(Cc1cccnc1)P(=O)(O)O [RISEDRONIC ACID]
- IC50 ([1]; hela): Not Active
- IC50 (Substance-K receptor): Not Active
- IC50 [2]: Not Active
- IC50 [3]: Not Active
- Ki [3]: Not Active
- IC50 [4]: Not Active
- IC50 ([5]; insect cells): Not Active

Compound: CN(CCOc1ccc(CC2SC(=O)NC2=O)cc1)c1ccccn1 (centres undefined) [ROSIGLITAZONE]
- IC50 ([1]; hela): Not Active
- IC50 (Substance-K receptor): Not Active
- IC50 [2]: Not Active
- IC50 [3]: Not Active
- Ki [3]: Not Active
- IC50 [4]: Not Active
- IC50 ([5]; insect cells): Not Active

Compound: C=C(C)[C@H]1Cc2c(ccc3c2O[C@@H]2COc4cc(OC)c(OC)cc4[C@@H]2C3=O)O1 [ROTENONE]
- IC50 ([1]; read-out: IC50): 870 nM
- Ki ([1]; read-out: Ki): 404 nM
- IC50 (Substance-K receptor): Not Active
- IC50 [2]: Not Active
- IC50 [3]: Not Active
- Ki [3]: Not Active
- IC50 [4]: Not Active
- IC50 ([5]; insect cells): Not Active

Compound: C#CCN(C)[C@H](C)Cc1ccccc1 [SELEGILINE]
- IC50 ([1]; hela): Not Active
- IC50 (Substance-K receptor): Not Active
- IC50 [3]: Not Active
- Ki [3]: Not Active
- IC50 [4]: Not Active
- IC50 ([5]; insect cells): Not Active

Compound: CO[C@H]1C[C@@H]2CC[C@@H](C)[C@@](O)(O2)C(=O)C(=O)N2CCCC[C@H]2C(=O)O[C@H]([C@H](C)C[C@@H]2CC[C@@H](O)[C@H](OC)C2)CC(=O)[C@H](C)/C=C(\C)[C@@H](O)[C@@H](OC)C(=O)[C@H](C)C[C@H](C)/C=C/C=C/C=C/1C [SIROLIMUS]
- IC50 ([1]; hela): Not Active
- IC50 (Substance-K receptor): Not Active
- IC50 [2]: Not Active
- IC50 [3]: Not Active
- Ki [3]: Not Active
- IC50 [4]: Not Active
- IC50 ([5]; insect cells): Not Active

Compound: CN[C@@H]1[C@H](O)[C@H](NC)[C@H]2O[C@@]3(O)C(=O)C[C@@H](C)O[C@H]3O[C@@H]2[C@H]1O [SPECTINOMYCIN]
- IC50 ([1]; hela): Not Active
- IC50 (Substance-K receptor): Not Active
- IC50 [2]: Not Active
- IC50 [3]: Not Active
- Ki [3]: Not Active
- IC50 [4]: Not Active
- IC50 ([5]; insect cells): Not Active

Compound: Nc1ccc(S(=O)(=O)Nc2ncccn2)cc1 [SULFADIAZINE]
- IC50 ([1]; hela): Not Active
- IC50 (Substance-K receptor): Not Active
- IC50 [2]: Not Active
- IC50 [3]: Not Active
- Ki [3]: Not Active
- IC50 [4]: Not Active
- IC50 ([5]; insect cells): Not Active

Compound: COc1ncnc(NS(=O)(=O)c2ccc(N)cc2)c1OC [SULFADOXINE]
- IC50 ([1]; hela): Not Active
- IC50 (Substance-K receptor): Not Active
- IC50 [2]: Not Active
- IC50 [3]: Not Active
- Ki [3]: Not Active
- IC50 [4]: Not Active
- IC50 ([5]; insect cells): Not Active

Compound: Nc1ccc(S(=O)(=O)Nc2nccs2)cc1 [SULFATHIAZOLE]
- IC50 ([1]; hela): Not Active
- IC50 (Substance-K receptor): Not Active
- IC50 [2]: Not Active
- IC50 [3]: Not Active
- Ki [3]: Not Active
- IC50 [4]: Not Active
- IC50 ([5]; insect cells): Not Active

Compound: C[C@]12CC[C@H]3[C@@H](CCC4=CC(=O)CC[C@@]43C)[C@@H]1CC[C@@H]2O [TESTOSTERONE]
- IC50 ([1]; hela): Not Active
- IC50 (Substance-K receptor): Not Active
- IC50 [2]: Not Active
- IC50 [3]: Not Active
- Ki [3]: Not Active
- IC50 [4]: Not Active
- IC50 ([5]; insect cells): Not Active

Compound: CC(C)(C)NC[C@H](O)COc1nsnc1N1CCOCC1 [TIMOLOL]
- IC50 ([1]; hela): Not Active
- IC50 (Substance-K receptor): Not Active
- IC50 [2]: Not Active
- IC50 [3]: Not Active
- Ki [3]: Not Active
- IC50 [4]: Not Active
- IC50 ([5]; insect cells): Not Active

Compound: CCS(=O)(=O)CCn1c([N+](=O)[O-])cnc1C [TINIDAZOLE]
- IC50 ([1]; hela): Not Active
- IC50 (Substance-K receptor): Not Active
- IC50 [2]: Not Active
- IC50 [3]: Not Active
- Ki [3]: Not Active
- IC50 [4]: Not Active
- IC50 ([5]; insect cells): Not Active

Compound: C[C@@H]1C[C@H]2[C@@H]3CCC4=CC(=O)C=C[C@]4(C)C3=CC[C@]2(C)[C@H]1C(=O)CN1CCN(c2cc(N3CCCC3)nc(N3CCCC3)n2)CC1 [TIRILAZAD]
- IC50 ([1]; hela): Not Active
- IC50 (Substance-K receptor): Not Active
- IC50 [2]: Not Active
- IC50 [3]: Not Active
- Ki [3]: Not Active
- IC50 [4]: Not Active
- IC50 ([5]; read-out: IC50): 20400 nM

Compound: NC[C@H]1O[C@H](O[C@H]2[C@H](O)[C@@H](O[C@H]3O[C@H](CO)[C@@H](O)[C@H](N)[C@H]3O)[C@H](N)C[C@@H]2N)[C@H](N)C[C@@H]1O [TOBRAMYCIN]
- IC50 ([1]; hela): Not Active
- IC50 (Substance-K receptor): Not Active
- IC50 [2]: Not Active
- IC50 [3]: Not Active
- Ki [3]: Not Active
- IC50 [4]: Not Active
- IC50 ([5]; insect cells): Not Active

Compound: O=c1n(CCCN2CCN(c3cccc(Cl)c3)CC2)nc2ccccn12 [TRAZODONE]
- IC50 ([1]; hela): Not Active
- IC50 (Substance-K receptor): Not Active
- IC50 [2]: Not Active
- IC50 [4]: Not Active
- IC50 ([5]; insect cells): Not Active

Compound: Cc1cn([C@H]2C[C@H](N=[N+]=[N-])[C@@H](CO)O2)c(=O)[nH]c1=O [ZIDOVUDINE]
- IC50 ([1]; hela): Not Active
- IC50 (Substance-K receptor): Not Active
- IC50 [2]: Not Active
- IC50 [3]: Not Active
- Ki [3]: Not Active
- IC50 [4]: Not Active
